# From patent US20110008409A1, “PHARMACEUTICAL PREPARATION CONTAINING A GESTAGEN, AND KIT AND METHOD FOR TREATING ENDOMETRIOSIS USING THE PREPARATION” (priority 2007, published 2011)
# Legend:
# ovulation = conditions: daily dose; as set for the purposes of the invention; cited from earlier work
# [1] = system: women with laparoscopically diagnosed endometriosis; conditions: in vivo
# Experimental: (§1) The efficacy of each therapy was evaluated by means of, among other methods, a pain scale (visual analog scale, VAS) form filled out by the patient.
# [2] = system: women with laparoscopically diagnosed endometriosis; test: Clinical study in endometriosis: pain scale (visual analog scale, VAS); type: in vivo; conditions: end of 6-month treatment; for pain reduction on visual analog scale (VAS) compared to the pain experienced at the beginning of therapy: DNG 2 mg/d orally, LA 3.75 mg s.c. every 4 weeks
# Experimental: as §1
# [3] = system: women with laparoscopically diagnosed endometriosis; conditions: in vivo; remark: listed apart in the source
# [4] = system: women with laparoscopically diagnosed endometriosis; conditions: in vivo; remark: listed apart in the source
# Experimental: as §1
# The effect of the two therapies on bone metabolism was studied in a subgroup of patients.
# [5] = system: subjects affected with endometriosis; conditions: 2 mg of dienogest per day for 24 weeks; cited from earlier work
SMILES,ovulation-inhibiting dose (ovulation) [mg],course of hot flash symptomatology during therapy [1],pain reduction on visual analog scale (VAS) compared to the pain experienced at the beginning of therapy [2] [mm],"estrogen values, average value at the end of study [3] [pmol/L]",change of bone density compared to the beginning of the study [4],laboratory parameters for determining bone metabolism [4],result of the treatment compared with Danazol or GnRH agonists [5],statistical analysis of pain reduction versus comparator ([2]; DNG 2 mg/d orally vs LA 3.75 mg s.c. every 4 weeks)
"CC(=O)O[C@]1(C(C)=O)CC[C@H]2[C@@H]3C=C(Cl)C4=CC(=O)CC[C@]4(C)[C@H]3CC[C@@]21C [chiormadinone acetate, chlormadinone acetate]",1.7,,,,,,,
CC(=O)O[C@]1(C(C)=O)CC[C@H]2[C@@H]3C=C(Cl)C4=CC(=O)[C@@H]5C[C@@H]5[C@]4(C)[C@H]3CC[C@@]21C [cyproterone acetate],1,,,,,,,
"CCNC(=O)[C@@H]1CCCN1C(=O)[C@H](CCCNC(=N)N)NC(=O)[C@H](CC(C)C)NC(=O)[C@@H](CC(C)C)NC(=O)[C@H](Cc1ccc(O)cc1)NC(=O)[C@H](CO)NC(=O)[C@H](Cc1c[nH]c2ccccc12)NC(=O)[C@H](Cc1c[nH]cn1)NC(=O)[C@@H]1CCC(=O)N1 [LA, leuprorelin acetate]",,increased,−46.0,68.5,−4.0%,increased bone resorption,,
"C[C@]12CCC3=C4CCC(=O)C=C4CC[C@H]3[C@@H]1CC[C@@]2(O)CC#N [DNG, 17α-cyanomethyl-17-β-hydroxyestra-4,9-dien-3-one]",,reduced,−47.5,249.9,+0.25%,,comparable,not inferior to LA
